# Laboratory results from US20260256741A1, “ANTICANCER MALEIMIDE DERIVATIVES FOR USE WITH IMMUNE CHECKPOINT BLOCKADE” (BROWN UNIVERSITY, priority 2022, published 2026).
# Experiments:
# Format in all cases: cell-based, human
# HCT-116 cells = experiment: Microarray gene expression analysis, HCT-116
# Experimental: A total of 0.5×10^6 tumor cells (HCT-116, HT-29, KM12C) were plated in a 6-well plate and allowed to adhere overnight before 24-hour treatment as indicated. 1×10^6 immune cells (NK92, TALL-104) were plated and treated with elraglusib as indicated for 24 hours. RNA was isolated from cell pellets in batches of 6 using an RNeasy Plus Mini Kit (Cat #74134, Qiagen, Hilden, Germany). Acceptable RNA concentration and quality were verified with Nanodrop and Bioanalyzer measurements. GeneChip™ Human Transcriptome Array 2.0 assays were conducted according to manufacturer instructions in two batches using randomized samples to limit batch effects (Cat #902162, Applied Biosystems, Waltham, MA, USA). Applied Biosystems Transcriptomic Analysis Console (TAC) software (RRID: SCR_016519) was used to calculate fold changes in gene expression relative to the untreated control cells. Values were considered statistically significant for p values <0.05.
# SW480 MSS CRC cells = experiment: Multicolor co-culture of SW480 CRC cells and TALL-104 T cells, EthD-1 dead cells; conditions: for percentage of dead cells out of total cells (average, normalized): 24 hours, 1:1 E:T
# Experimental: 10,000 HCT-116, SW480, or HT-29 cells were plated per well in a clear-bottom, black-walled 48-well tissue culture plate and were allowed to adhere overnight. […] CRC cells were labeled using CellTracker™ Green CMFDA (5-chloromethylfluorescein diacetate), immune cells (NK-92, TALL-104) were labeled using CellTracker™ Blue CMAC Dye (7-amino-4-chloromethylcoumarin), and ethidium homodimer-1 (EthD-1) was used as a marker of cell death (Invitrogen, Waltham, MA). 10× images were captured using a Nikon Ti-U Inverted Fluorescence Microscope and NIS-Elements F Package imaging software 3.22.00 Build 710 (Nikon Instruments Inc, USA). The number of red/green color cells in random fields was determined using thresholding and particle analysis in the Fiji modification (RRID: SCR_002285) of ImageJ and expressed as a dead/live cell ratio. Normalization was carried out by subtracting the percentage of cell death due to drug or vehicle control (DMSO) only from the percentage of dead cells observed in the co-culture of tumor and immune cells treated with the drug. At least 100 cells were evaluated per sample, with 3 independent replicates. Statistical analysis was done using GraphPad Prism 9 (RRID: SCR_002798).
# NK-92 cells = experiment: Cytokine profiling of cell culture supernatant (Luminex 200), NK-92
# Experimental: Cells were plated at 3.5×10^4 cells in a 48-well plate (Thermo Fisher Scientific, Waltham, MA, USA) in complete medium and incubated at 37° C. with 5% CO2. At 24 hours after plating, almost all the tumor cells were adherent to the bottom of the flask and the complete medium was replaced with the drug-containing medium. […] On the day of analysis, samples were thawed and centrifuged to remove cellular debris.
# Human cell line culture supernatants were analyzed using an R&D systems Human Premixed Multi-Analyte Kit (R&D Systems, Inc., Minneapolis, MN, USA) and a Luminex 200 (RRID: SCR_018025) Instrument (LX200-XPON-RUO, Luminex Corporation, Austin, TX, USA) according to the manufacturer's instructions. Sample levels of TNF-α, 4-1BB/TNFRSF9/CD137, IL-8/CXCL8, Ferritin, IFN-β, IL-10, CCL2/JE/MCP-1, VEGF, CXCL13/BLC/BCA-1, IFN-γ, CCL20/MIP-3 α, CCL3/MIP-1 α, CCL22/MDC, CCL4/MIP-1 β, Fas Ligand/TNFSF6, IL-17/IL-17A, IL-2, BAFF/BLyS/TNFSF13B, GM-CSF, CXCL5/ENA-78, TRANCE/TNFSF11/RANK L, CXCL9/MIG, G-CSF, IFN-γ R1/CD119, VEGFR3/Flt-4, C-Reactive Protein/CRP, CXCL11/I-TAC, IL-21, CXCL14/BRAK, IL-6, Fas/TNFRSF6/CD95, TRAIL R3/TNFRSF10C, IL-4, CCL5/RANTES, PD-L1/B7-H1, CCL7/MCP-3/MARC, Chitinase 3-like 1, CXCL10/IP-10/CRG-2, IL-1 β/IL-1F2, IL-7, Prolactin, CCL8/MCP-2, TRAIL R2/TNFRSF10B, M-CSF, IL-15, Granzyme B, IFN-α, TREM-1, IL-12/IL-23 p40, TRAIL/TNFSF10, CCL11/Eotaxin, and IL-18/IL-1F4. Quantitative analysis with 6 standards and a minimum of 50 counts per bead region was used with the Luminex to generate analyte values reported as picograms/milliliter (pg/mL). Sample concentrations less than the lower limit of detection for each particular analyte were recoded as the lower limit value divided by ten. Sample concentrations above the upper limit of detection for a particular analyte were recoded as the upper limit of detection.
smiles,measurement,setting,value
"Cn1cc(C2=C(c3coc4ccc(F)cc34)C(=O)NC2=O)c2cc3c(cc21)OCO3 [elraglusib, 3-(5-fluorobenzofuran-3-yl)-4-(5-methyl-5H-[1,3]dioxolo[4,5-f]indol-7-yl)-1H-pyrrole-2,5-dione]",CMTM4 gene expression fold change,HCT-116 cells; 24 hours vs DMSO,−1.84 FC
same,NEK2 gene expression fold change,HCT-116 cells; 24 hours vs DMSO,−2.21 FC
same,PPP1R1C gene expression fold change,HCT-116 cells; 24 hours vs DMSO,1.78 FC
same,downregulated genes in VEGFA-VEGFR2 signaling pathway,HCT-116 cells; 24 hours vs DMSO,29
same,differentially expressed genes post-treatment,"HCT-116 cells; IC-50 concentration (1 μM), 24 hours, FC cutoff >1.5, <−1.5, p<0.05",340
same,"percentage of dead cells out of total cells (average, normalized)","SW480 MSS CRC cells; co-culture with TALL-104, 5 μM",60%
same,"percentage of dead cells out of total cells (average, normalized)","SW480 MSS CRC cells; co-culture with TALL-104, 10 μM",65%
same,tumor cell death in SW480 monocultures,"SW480 MSS CRC cells; drug only, no immune cells",limited tumor cell death
same,"percentage of dead cells (average, normalized)","SW480 MSS CRC cells; tumor cells pre-treated with 5 μM for 24 hours, then 24-hour co-culture with TALL-104",65%
same,IFN-γ concentration in supernatant,"NK-92 cells; 1 μM, 48 hours",increases
same,TRAIL concentration in supernatant,"NK-92 cells; 1 μM, 48 hours",increases
same,secreted granzyme B concentration,"NK-92 cells; 1 μM, 48 hours",decreases
same,IFN-γ in cell culture supernatant,NK-92 cells; 24 hours treatment vs DMSO,significant increase in IFN-γ
